From US20150025119A1, “Release Application for Antihypertensive Agent on Plant Fiber Bundle” (National Tsing Hua University, priority 2013, published 2015)

Assay: Release of Valsartan from plant fiber bundle base (toothpick) in physiological saline, fluorescence analysis
Format: physicochemical
Conditions: toothpick impregnated at 10 mg/mL, released in physiological saline for 1, 3, 5, 10 minutes, 38 repetitions, FIG. 4
Description: Firstly, in step 100, antihypertensive agents are fixed onto a plant fiber bundle base such as a toothpick, i.e., solid antihypertensive agents attached onto the plant fiber bundle base. In this step, the plant fiber bundle base may be impregnated in liquid antihypertensive agents. Because of the physical adsorption properties of plant fiber bundles, the composition of the liquid antihypertensive agents is gradually adsorbed into the plant fiber bundles until the amount of antihypertensive agents on plant fiber bundle base reaches a saturated condition. In one embodiment, the concentration of antihypertensive agents (e.g., Valsartan) in liquid form is 2.5, 5, 8, 10, 20 mg/mL, respectively. Then, the plant fiber bundle base is removed. […] Next, in step 102, fluorescence analysis of the released anti-hypertensive agents is performed. […] Based on this feature, an optical instrument is used for fluorescence analysis of different concentrations of Valsartan affixed to toothpicks. Fluorescence analysis of different concentrations of Valsartan was performed using ImageJ image analysis software. […] An optical instrument is used to collect fluorescence data of Valsartan after release in physiological saline in 38 repetitions of the experiment. […]

Compound: CCCCC(=O)N(Cc1ccc(-c2ccccc2-c2nnn[nH]2)cc1)[C@H](C(=O)O)C(C)C [Valsartan]
- proportion of release (release percentage) of Valsartan over time: increases until the saturation level is reached
